Assay results taken from the NIST ThermoML archive (doi:10.1016/j.fluid.2017.09.023).

Conditions: Crystal, Transpiration method

CC(=O)Nc1ccccc1 [N-phenylethanamide]
Conditions	vapor or sublimation pressure [kPa]
316.3 K	9e-05
320.3 K	0.00015
322.3 K	0.00018
323.2 K	0.00021
325.3 K	0.00025
327 K	0.0003
328.1 K	0.00035
328.2 K	0.00033
333.3 K	0.0006
334.3 K	0.00064
337.1 K	0.00088
339.4 K	0.00114
340.3 K	0.00119
342.4 K	0.00159
345.5 K	0.00205
346.1 K	0.00214
347.2 K	0.0024
349.4 K	0.00299
351.2 K	0.00356
352.5 K	0.00422
355.5 K	0.00532
356.4 K	0.00601
357.4 K	0.00636
359.2 K	0.00759
360.2 K	0.00852
362.2 K	0.01028
364.3 K	0.01261
365.3 K	0.01406
366.7 K	0.01576
368.4 K	0.01777
369.2 K	0.01911
372.2 K	0.02411
